Legend:
[1] = test system: phosphodiesterase (PDE) from human blood platelets; assay: PDE Inhibition (human blood platelet phosphodiesterase, 3H-cAMP hydrolysis); type: biochemical; conditions: 1 μmol/liter 3H-cAMP, 15 minutes at 37° C., pH 7.4
Procedure: cAMP is hydrolyzed to AMP by phosphodiesterase (PDE) from various sources, including blood platelets.
The phosphodiesterase used was prepared by centrifugal extraction at 10,000 G from human blood platelets which were frozen in water and then thawed.
0.3 ml of a mixture containing 0.1 mol/liter of trihydroxy-aminomethane (pH 7.4), 3 mmols/liter of magnesium chloride, 1 mmol/liter of AMP, 1 μmol/liter of ^3 H-cAMP (specific activity about 10 MBq/μmol), PDE and the inhibitor under investigation (water in the case of the control) was incubated for 15 minutes at 37° C. The incubation was stopped by the addition of 0.5 ml zinc sulfate (0.266 mol/liter) and 0.5 ml barium hydroxide (0.226 mol/liter), the precipitate was centrifuged, and the activity remaining in the unreacted ^3 H-cAMP in the supernatant was determined. From a comparison of the results for inhibitor and control cases, the concentration of the respective inhibitor necessary for a 50% inhibiting effect (IC50) was calculated: […]

conscious mice = assay: Determination of the prolongation of bleeding time (tail tip, oral, conscious mice); type: in vivo; conditions: Mus musculus, 2.5 mg/kg oral, after 1 hour, compared to control group, 5 animals per experiment
Procedure: To measure the bleeding time, 2.5 mg/kg of the test compound were administered orally to conscious mice. After one hour, 0.5 mm of the tip of the tail of each mouse was cut off and the droplets of blood were gently removed with filter paper every 30 seconds. The number of drops of blood thus obtained give a bleeding time (5 animals per experiment).
The results of the following table represent the prolongation of the bleeding time in percent as compared to a control group: […]

mice = assay: Acute toxicity, single oral dose; type: in vivo; conditions: groups of 10 mice, single oral dose, observation period 14 days; dose at which 0 out of 10 animals died
Procedure: (§1) The acute toxicity of the compounds was determined in groups of 10 mice after oral administration of a single dose (observation period: 14 days): […]

[2] = Acute toxicity, single oral dose; type: in vivo, mice; conditions: mouse, in vivo; single oral dose of 250 mg (E: 1000 mg), 14 days observation, mice; read-out: animals that died out of 10
Procedure: as §1

Row | Structure (SMILES) | IC50 [1] | change in vivo at 2.5 mg/kg (conscious mice) | Approximate acute toxicity (dose) (mice) | mortality at 336 h [2]
1 | CC(C)(C)c1ccc(S(=N)(=O)CCCCOc2ccc3c(c2)CCC(=O)N3)cc1 (stereo not shown) [K, 6-[4-(4-tert.butylphenyl-sulfoximino)-butoxy]-3,4-dihydrocarbostyril] | 240 nM | > 180% | – | –
2 | CC(C)(C)c1ccc(S(=N)(=O)CCCCOc2ccc3[nH]c(=O)ccc3c2)cc1 (stereo not shown) [M, 6-[4-(4-tert.butylphenyl-sulfoximino)-butoxy]-carbostyril] | 210 nM | > 191% | – | –
3 | Cc1cc(S(=N)(=O)CCCCOc2ccc3[nH]c(=O)ccc3c2)ccc1Br (stereo not shown) [Compound I, 6-[4-(3-methyl-4-bromophenyl-sulfoximino)-butoxy]-carbostyril] | 39 nM | > 275% | 250 mg | 0%
4 | N=S(=O)(CCCCOc1ccc2[nH]c(=O)ccc2c1)C1CCCCC1 (stereo not shown) [N, 6-(4-cyclohexylsulfoximino-butoxy)-carbostyril] | 680 nM | > 184% | – | –
5 | N=S(=O)(CCCCOc1ccc2[nH]c(=O)ccc2c1)c1ccc(F)cc1 (stereo not shown) [G, 6-[4-(4-fluorophenyl-sulfoximino)-butoxy]-carbostyril] | 400 nM | 85% | 250 mg | 0%
6 | COc1ccc(S(=O)(CCCCOc2ccc3c(c2)CCC(=O)N3)=NC(=O)c2ccc(C(C)(C)C)cc2)cc1OC (stereo not shown) [Q, 6-[4-(N-tert.benzoyl-3,4-dimethoxyphenyl-sulfoximino)-butoxy]-3,4-dihydrocarbostyril] | 3100 nM | > 158% | – | –
7 | CC(=O)N=S(=O)(CCCCOc1ccc2c(c1)CCC(=O)N2)c1ccc(Cl)c(Cl)c1 (stereo not shown) [E, 6-[4-(N-acetyl-3,4-dichlorophenyl-sulfoximino)-butoxy]-3,4-dihydrocarbostyril] | 840 nM | > 194% | 1000 mg | 0%
8 | N=S(=O)(CCCCOc1ccc2c(c1)CCC(=O)N2)c1ccc(C2CCCCC2)cc1 (stereo not shown) [L, 6-[4-(4-cyclohexylphenyl-sulfoximino)-butoxy]-3,4-dihydrocarbostyril] | 52 nM | > 191% | – | –
9 | N=S(=O)(CCCCOc1ccc2c(c1)CCC(=O)N2)c1ccccc1 (stereo not shown) [B, 6-(4-phenylsulfoximino-butoxy)-3,4-dihydrocarbostyril] | 2000 nM | > 161% | 250 mg | 0%
10 | CCCC(=O)N=S(=O)(CCCCOc1ccc2c(c1)CCC(=O)N2)c1ccc(Cl)c(Cl)c1 (stereo not shown) [O, 6-[4-(N-butyryl-3,4-dichlorophenyl-sulfoximino)-butoxy]-3,4-dihydrocarbostyril] | 530 nM | > 233% | – | –
11 | N=S(=O)(CCCCOc1ccc2c(c1)CCC(=O)N2)c1ccc(Cl)cc1 (stereo not shown) [D, 6-[4-(4-chlorophenyl-sulfoximino)-butoxy]-3,4-dihydrocarbostyril] | 840 nM | 53% | 250 mg | 0%
12 | N=S(=O)(CCCCOc1ccc2c(c1)CCC(=O)N2)c1ccc(F)cc1 (stereo not shown) [C, 6-[4-(4-fluorophenyl-sulfoximino)-butoxy]-3,4-dihydrocarbostyril] | 1200 nM | 125% | 250 mg | 0%
13 | N=S(=O)(CCCCOc1ccc2[nH]c(=O)ccc2c1)c1ccc(Cl)cc1 (stereo not shown) [H, 6-[4-(4-chlorophenyl-sulfoximino)-butoxy]-carbostyril] | 170 nM | 78% | 250 mg | 0%
14 | Cc1ccc(S(=O)(=O)N=S(=O)(CCCCOc2ccc3c(c2)CCC(=O)N3)c2ccc(Cl)c(Cl)c2)cc1 (stereo not shown) [F, 6-[4-(N-p-toluenesulfonyl-3,4-dichlorophenyl-sulfoximino)-butoxy]-3,4-dihydrocarbostyril] | 900 nM | > 212% | 250 mg | 0%
15 | CS(=N)(=O)CCCCOc1ccc2c(c1)CCC(=O)N2 (stereo not shown) [Compound A, 6-(4-methylsulfoximino-butoxy)-3,4-dihydrocarbostyril mesitylenesulfonate] | 45000 nM | 73% | 250 mg | 0%
16 | COc1ccc(S(=N)(=O)CCCCOc2ccc3c(c2)CCC(=O)N3)cc1OC (stereo not shown) [R, 6-[4-(3,4-dimethoxyphenyl-sulfoximino)-butoxy]-3,4-dihydrocarbostyril] | 1600 nM | > 218% | – | –
17 | CC(=O)N=S(=O)(CCCCOc1ccc2c(c1)C(C)(C)C(=O)N2)c1ccc(Cl)cc1 (stereo not shown) [P, 5-[4-(N-Acetyl-4-chlorophenyl-sulfoximino)-butoxy]-3,3-dimethyl-indolin-2-one] | 1800 nM | > 169% | – | –
